From US11419953B2, “Reduced metastable complex macrocyclic contrast agents” (INVENTURE, LLC, priority 2020, dated 2022)

Key:
[1] = Free Gd3+ release in vitro, comparative data (Example 6); type: physicochemical; settings: after 30 minutes at standard dosing
[2] = cited from earlier work
[3] = commercial product stored in bottle; cited from earlier work

SMILES: CNC[C@H](O)[C@@H](O)[C@H](O)[C@H](O)CO.O=C([O-])CN1CCN(CC(=O)[O-])CCN(CC(=O)O)CCN(CC(=O)[O-])CC1.[Gd+3] [DOTAREM, gadoterate meglumine]
- In Vitro PPM (free GAD released) [1]: 1,204 +/− 3.9 PPM

SMILES: O=C([O-])CN1CCN(CC(=O)[O-])CCN(CC(=O)[O-])CCN(CC(=O)[O-])CC1.[Gd+3] [Gd-DOTA]
- stability lower at pH 7.4 than for the fully deprotonated complex [2]: 7 orders of magnitude
- in-bottle measured free gadolinium [3]: 10^13 Gd3+ ions in 100 ml of GCA product
